The numbers were not newly measured in patent US8155888B2, “Method and apparatus for assessing polypeptide aggregation” (Cambridge University Technical Services Ltd., priority 2003, dated 2012), which cites them from elsewhere.

Where two headings read alike, the source gives them in different places. Where no end group is shown, it is not given here.

The conditions of data set [1]: mutant versus wild type; growth phase only; from literature data.
Experiment in data set [2]: not given
This is another data set of the same source.

Experiment in data set [3]: not given
The source holds these as a separate data set.

Where [4] appears, read: Table 1, neutral pH, partition coefficients from water to octanol.
Setting [5] is: Table 5, neutral pH, partition coefficients from water to octanol.
Where [6] appears, read: Table 1, normalised from 0 (high) to 1 (low).
The mark [7] stands for this setting: Table 5, normalized from 0 (high) to 1 (low).

With “D23N: D23N mutation of Aβ (amyloid-β peptide)”, the “observed ln(νmut/νwt)” value in data set [1] is recorded as 3.97.
On to `NC(=O)CC[C@H](N)C(=O)O` [Gln (Q)], for which the charge by setting is: (Table 1, neutral pH) 0; (Table 5, neutral pH) 0. Also, the hydrophobicity in data set [2] (setting [4]) was 0.311 kcal/mol; in data set [2] (setting [5]) it was 1.30 kcal/mol. Further, the β-sheet propensity in data set [3] (setting [6]) and in data set [3] (setting [7]) was 0.34 each time.
Consider “F19T: F19T mutation of Aβ (amyloid-β peptide)”, for which the “observed ln(νmut/νwt)” value in data set [1] is reported as −2.48.
With `N[C@@H](CCC(=O)O)C(=O)O` [Glu (E), glutamic acid], the charge (Table 1, neutral pH) is listed as −1 and the charge (Table 5, neutral pH) is on record as −1. Further, the β-sheet propensity in data set [3] (setting [6]) and in data set [3] (setting [7]) was 0.35 throughout.
Consider “S20G: S20G mutation of amylin (KCNTATCATQRLANFLVHSGNNFGAILSSTNVGSNTY; ends and bridges not checked; cysteine pairing not given here; UniProt P10997 34-70, looked up, variant S20G)”, for which the “observed ln(νmut/νwt)” value in data set [1] is on record as 1.01.
For `CC(C)[C@H](N)C(=O)O` [Val (V)], the charge (Table 1, neutral pH) is 0 and the charge (Table 5, neutral pH) is 0. Further, the hydrophobicity in data set [2] (setting [5]) was -1.30 kcal/mol. The β-sheet propensity in data set [3] (setting [6]) and in data set [3] (setting [7]) was 0.13 each time.
For “I26A: single-point mutation I26A of amylin (KCNTATCATQRLANFLVHSSNNFGAALSSTNVGSNTY; ends and bridges not checked; cysteine pairing not given here; UniProt P10997 34-70, looked up, variant I26A)”, the “observed ln(νmut/νwt)” value in data set [1] is listed as −2.39.
For the molecule `N[C@@H](Cc1ccccc1)C(=O)O` [Phe (F), phenylalanine], the charge is 0 (Table 1, neutral pH) and 0 (Table 5, neutral pH). Moreover, the results for the hydrophobicity in data set [2] (setting [4]) and in data set [2] (setting [5]) were -0.543 kcal/mol and -2.27 kcal/mol, respectively. Further, the β-sheet propensity in data set [3] (setting [6]) and in data set [3] (setting [7]) was 0.13 throughout.
Turning to `N[C@@H](CO)C(=O)O` [Ser (S), serine], the charge (Table 1, neutral pH) is recorded as 0 and the charge (Table 5, neutral pH) is on record as 0. The hydrophobicity in data set [2] (setting [4]) is 0.296 kcal/mol; in data set [2] (setting [5]) it was 1.24 kcal/mol. Also, the β-sheet propensity in data set [3] (setting [6]) and in data set [3] (setting [7]) was 0.30 in each case.
In the case of `CC[C@H](C)[C@H](N)C(=O)O` [Ile (I)], the charge (Table 1, neutral pH) is 0 and the charge (Table 5, neutral pH) is 0. In addition, the hydrophobicity is -0.435 kcal/mol in data set [2] (setting [4]) and -1.82 kcal/mol in data set [2] (setting [5]). Also, the β-sheet propensity in data set [3] (setting [6]) and in data set [3] (setting [7]) was 0.10 throughout.
For “A21G: A21G mutation of Aβ (amyloid-β peptide)”, the “observed ln(νmut/νwt)” value in data set [1] is −0.07.
Turning to “L27A: single-point mutation L27A of amylin (KCNTATCATQRLANFLVHSSNNFGAIASSTNVGSNTY; ends and bridges not checked; cysteine pairing not given here; UniProt P10997 34-70, looked up, variant L27A)”, in data set [1], the “observed ln(νmut/νwt)” value is listed as −0.93.
Regarding “N22A: single-point mutation N22A of amylin (KCNTATCATQRLANFLVHSSNAFGAILSSTNVGSNTY; ends and bridges not checked; cysteine pairing not given here; UniProt P10997 34-70, looked up, variant N22A)”, the “observed ln(νmut/νwt)” value in data set [1] is 0.69.
As to `NC(=O)C[C@H](N)C(=O)O` [Asn (N)], the charge was 0 (Table 1, neutral pH) and 0 (Table 5, neutral pH). The hydrophobicity is 0.457 kcal/mol in data set [2] (setting [4]) and 1.91 kcal/mol in data set [2] (setting [5]). Moreover, the β-sheet propensity in data set [3] (setting [6]) and in data set [3] (setting [7]) was 0.40 each time.
Regarding `N[C@@H](Cc1ccc(O)cc1)C(=O)O` [Tyr (Y)], the charge is on record as 0 (Table 1, neutral pH) and 0 (Table 5, neutral pH). The values for the hydrophobicity in data set [2] (setting [4]) and in data set [2] (setting [5]) were -0.351 kcal/mol and -1.47 kcal/mol, respectively. In addition, the β-sheet propensity in data set [3] (setting [6]) and in data set [3] (setting [7]) was 0.11 each time.
As to “G24A: single-point mutation G24A of amylin (KCNTATCATQRLANFLVHSSNNFAAILSSTNVGSNTY; ends and bridges not checked; cysteine pairing not given here; UniProt P10997 34-70, looked up, variant G24A)”, the “observed ln(νmut/νwt)” value in data set [1] is −0.03.
On to `O=C(O)[C@@H]1CCCN1` [Pro (P), proline], for which the charge runs as follows: (Table 1, neutral pH) 0; (Table 5, neutral pH) 0. In addition, the hydrophobicity in data set [2] (setting [4]) is -0.237 kcal/mol; in data set [2] (setting [5]), -0.99 kcal/mol.
Take `C[C@H](N)C(=O)O` [Ala (A)]: the charge (Table 1, neutral pH) is given as 0 and the charge (Table 5, neutral pH) is 0. Also, the hydrophobicity in data set [2] (setting [4]) was -0.0932 kcal/mol; in data set [2] (setting [5]) it was -0.39 kcal/mol. Also, the β-sheet propensity in data set [3] (setting [6]) and in data set [3] (setting [7]) was 0.47 in each case.
`CSCC[C@H](N)C(=O)O` [Met (M)]: the charge is, setting by setting: (Table 1, neutral pH) 0; (Table 5, neutral pH) 0. For the same molecule, the values for the hydrophobicity in data set [2] (setting [4]) and in data set [2] (setting [5]) were -0.229 kcal/mol and -0.96 kcal/mol, respectively. For the same molecule, the β-sheet propensity in data set [3] (setting [6]) and in data set [3] (setting [7]) was 0.26 in each case.
“E22Q: E22Q mutation of Aβ (amyloid-β peptide)”: the “observed ln(νmut/νwt)” value in data set [1] is 2.92.
With “E22G: E22G mutation of Aβ (amyloid-β peptide)”, in data set [1], the “observed ln(νmut/νwt)” value is recorded as 2.03.
In the case of `C[C@@H](O)[C@H](N)C(=O)O` [Thr (T)], the charge is 0 (Table 1, neutral pH) and 0 (Table 5, neutral pH). The hydrophobicity in data set [2] (setting [4]) was 0.239 kcal/mol; in data set [2] (setting [5]), 1.00 kcal/mol. In addition, the β-sheet propensity in data set [3] (setting [6]) and in data set [3] (setting [7]) was 0.06 throughout.
Take “E22K: E22K mutation of Aβ (amyloid-β peptide)”: the “observed ln(νmut/νwt)” value in data set [1] is listed as 0.92.
Regarding `N[C@@H](CS)C(=O)O` [Cys (C)], the charge is on record as 0 (Table 1, neutral pH) and 0 (Table 5, neutral pH). Besides, the hydrophobicity in data set [2] (setting [4]) is -0.0598 kcal/mol; in data set [2] (setting [5]) it was -0.25 kcal/mol. The β-sheet propensity in data set [3] (setting [6]) and in data set [3] (setting [7]) was 0.25 in each case.
Take `N[C@@H](Cc1c[nH]cn1)C(=O)O` [His (H), histidine]: the charge (Table 1, neutral pH) was 0; the charge result (Table 1, value in brackets, pH lower than 6.0) is on record as “+1”; the charge (Table 5, neutral pH) is on record as 0; the charge result (Table 5, value in brackets, pH lower than 6.0) is recorded as “+1”. In addition, the hydrophobicity in data set [2] (setting [4]) was 0.153 kcal/mol; in data set [2] (Table 1, value in brackets, pH lower than 6.0, histidine positively charged), 0.686 kcal/mol; in data set [2] (setting [5]) it was 0.64 kcal/mol; in data set [2] (Table 5, value in brackets, pH lower than 6.0, histidine positively charged), 2.87 kcal/mol. Also, the β-sheet propensity in data set [3] (setting [6]) and in data set [3] (setting [7]) was 0.37 in each case.
As to `N[C@@H](CC(=O)O)C(=O)O` [Asp (D), aspartic acid], the charge (Table 1, neutral pH) is on record as −1 and the charge (Table 5, neutral pH) is listed as −1. Moreover, the hydrophobicity in data set [2] (setting [4]) is 0.911 kcal/mol; in data set [2] (setting [5]), 3.81 kcal/mol. For the same molecule, the β-sheet propensity in data set [3] (setting [6]) and in data set [3] (setting [7]) was 0.72 each time.
`NCC(=O)O` [Gly (G), glycine]: the charge reads like this: (Table 1, neutral pH) 0; (Table 5, neutral pH) 0. Further, the hydrophobicity in data set [2] (setting [4]) is 0 kcal/mol; in data set [2] (setting [5]), 0.00 kcal/mol. In addition, the β-sheet propensity in data set [3] (setting [6]) and in data set [3] (setting [7]) was 0.60 throughout.
With “F23A: single-point mutation F23A of amylin (KCNTATCATQRLANFLVHSSNNAGAILSSTNVGSNTY; ends and bridges not checked; cysteine pairing not given here; UniProt P10997 34-70, looked up, variant F23A)”, the “observed ln(νmut/νwt)” value in data set [1] was −2.65.
